Experimental data reported in BindingDB's records for doi:10.1021/jm300847w (Amgen, 2012).
pIC50: −log10 of the molar value.

Assay: Inhibition of PI3Kdelta in B-cells by proliferation assay

Compound | pIC50
C[C@H](Nc1ncnc2nc[nH]c12)c1cc2cccc(Cl)c2nc1-c1cscn1 | 9.30
Cc1cccc2nc(-c3ccccc3Cl)c(Cn3nc(C#N)c4c(N)ncnc43)nc12 | 8.70
